For 22 compounds, AC50 results are on record in ChEMBL document CHEMBL5291721, “A preclinical secondary pharmacology resource illuminates target-adverse drug reaction associations of marketed drugs” (Nat Commun, 2023).

Assay [1] has as its target T1, Muscarinic acetylcholine receptor M2 (Homo sapiens, UniProt P08172).
T1 sequence (P08172 whole entry): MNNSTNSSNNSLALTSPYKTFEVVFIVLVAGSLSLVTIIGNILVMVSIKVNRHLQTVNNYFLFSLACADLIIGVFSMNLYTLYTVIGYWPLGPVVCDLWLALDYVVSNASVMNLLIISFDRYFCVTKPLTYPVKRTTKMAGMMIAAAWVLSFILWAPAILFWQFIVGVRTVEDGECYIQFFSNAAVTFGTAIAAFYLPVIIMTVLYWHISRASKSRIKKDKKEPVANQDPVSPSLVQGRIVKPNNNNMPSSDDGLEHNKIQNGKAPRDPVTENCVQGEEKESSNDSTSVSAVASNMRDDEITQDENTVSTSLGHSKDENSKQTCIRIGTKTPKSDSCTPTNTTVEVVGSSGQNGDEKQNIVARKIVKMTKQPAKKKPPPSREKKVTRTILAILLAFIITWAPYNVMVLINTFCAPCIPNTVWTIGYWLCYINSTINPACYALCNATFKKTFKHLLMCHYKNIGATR

Assay [2] deals with Gamma-aminobutyric acid receptor subunit alpha-1/alpha-2/beta-2/gamma-2 (Homo sapiens, UniProt P14867+P18507+P47869+P47870). The format is functional, cell-based.
Sequence of Gamma-aminobutyric acid receptor subunit alpha-1/alpha-2/beta-2/gamma-2 (P14867 whole entry): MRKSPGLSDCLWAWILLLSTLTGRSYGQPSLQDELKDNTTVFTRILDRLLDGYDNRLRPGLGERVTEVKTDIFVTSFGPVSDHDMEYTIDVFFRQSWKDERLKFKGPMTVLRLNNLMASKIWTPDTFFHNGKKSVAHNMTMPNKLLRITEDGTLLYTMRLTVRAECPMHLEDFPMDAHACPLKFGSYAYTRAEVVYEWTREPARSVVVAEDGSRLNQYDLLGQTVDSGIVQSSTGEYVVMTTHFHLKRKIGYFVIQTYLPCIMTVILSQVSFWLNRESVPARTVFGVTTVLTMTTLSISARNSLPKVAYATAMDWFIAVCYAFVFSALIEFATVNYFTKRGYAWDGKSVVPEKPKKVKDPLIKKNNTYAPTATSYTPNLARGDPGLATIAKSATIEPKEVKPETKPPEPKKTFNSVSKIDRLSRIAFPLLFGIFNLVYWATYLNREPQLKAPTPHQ
Sequence of Gamma-aminobutyric acid receptor subunit alpha-1/alpha-2/beta-2/gamma-2 (P47870 whole entry): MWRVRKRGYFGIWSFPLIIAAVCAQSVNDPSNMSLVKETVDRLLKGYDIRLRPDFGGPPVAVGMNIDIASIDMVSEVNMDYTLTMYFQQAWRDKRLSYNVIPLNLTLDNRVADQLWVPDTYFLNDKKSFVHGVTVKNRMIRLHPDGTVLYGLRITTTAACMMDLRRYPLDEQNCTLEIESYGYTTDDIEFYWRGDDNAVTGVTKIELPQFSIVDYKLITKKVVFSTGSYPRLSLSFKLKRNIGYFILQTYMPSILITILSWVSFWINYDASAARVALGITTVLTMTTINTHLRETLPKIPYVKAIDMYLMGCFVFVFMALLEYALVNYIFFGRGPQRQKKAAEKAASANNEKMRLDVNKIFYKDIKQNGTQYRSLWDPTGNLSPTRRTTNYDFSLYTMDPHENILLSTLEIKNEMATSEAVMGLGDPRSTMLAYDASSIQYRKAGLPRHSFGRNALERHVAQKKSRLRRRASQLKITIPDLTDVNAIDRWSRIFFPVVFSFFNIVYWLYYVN
Sequence of Gamma-aminobutyric acid receptor subunit alpha-1/alpha-2/beta-2/gamma-2 (P18507 whole entry): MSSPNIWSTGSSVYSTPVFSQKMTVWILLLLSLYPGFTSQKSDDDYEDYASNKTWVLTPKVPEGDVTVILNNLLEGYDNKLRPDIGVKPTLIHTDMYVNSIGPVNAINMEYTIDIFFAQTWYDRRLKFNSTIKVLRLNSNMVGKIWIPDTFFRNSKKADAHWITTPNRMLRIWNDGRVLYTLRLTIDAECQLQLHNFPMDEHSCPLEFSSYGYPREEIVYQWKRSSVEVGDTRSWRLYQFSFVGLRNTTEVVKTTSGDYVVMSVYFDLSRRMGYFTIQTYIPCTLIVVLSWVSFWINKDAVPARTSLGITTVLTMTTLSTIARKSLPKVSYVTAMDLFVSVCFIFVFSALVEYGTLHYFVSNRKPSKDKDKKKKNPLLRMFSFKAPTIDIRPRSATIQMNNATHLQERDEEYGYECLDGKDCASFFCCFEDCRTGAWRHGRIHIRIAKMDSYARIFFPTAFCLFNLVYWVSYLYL
Sequence of Gamma-aminobutyric acid receptor subunit alpha-1/alpha-2/beta-2/gamma-2 (P47869 whole entry): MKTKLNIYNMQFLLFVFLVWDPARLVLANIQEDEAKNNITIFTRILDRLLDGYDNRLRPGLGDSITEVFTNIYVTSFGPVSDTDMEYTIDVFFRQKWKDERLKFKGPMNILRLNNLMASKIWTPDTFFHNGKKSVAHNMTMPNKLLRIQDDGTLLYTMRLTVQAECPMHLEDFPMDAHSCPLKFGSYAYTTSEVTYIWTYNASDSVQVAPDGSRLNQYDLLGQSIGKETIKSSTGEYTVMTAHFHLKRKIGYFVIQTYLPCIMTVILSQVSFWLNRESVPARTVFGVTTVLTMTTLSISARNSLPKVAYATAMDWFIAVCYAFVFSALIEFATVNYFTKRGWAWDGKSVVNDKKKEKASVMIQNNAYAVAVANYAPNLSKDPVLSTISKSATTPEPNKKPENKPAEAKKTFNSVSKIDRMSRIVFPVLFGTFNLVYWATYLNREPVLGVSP
For assay [3], the target named is T2, Corticotropin-releasing factor receptor 1 (Homo sapiens, UniProt P34998).
T2 sequence (P34998 whole entry): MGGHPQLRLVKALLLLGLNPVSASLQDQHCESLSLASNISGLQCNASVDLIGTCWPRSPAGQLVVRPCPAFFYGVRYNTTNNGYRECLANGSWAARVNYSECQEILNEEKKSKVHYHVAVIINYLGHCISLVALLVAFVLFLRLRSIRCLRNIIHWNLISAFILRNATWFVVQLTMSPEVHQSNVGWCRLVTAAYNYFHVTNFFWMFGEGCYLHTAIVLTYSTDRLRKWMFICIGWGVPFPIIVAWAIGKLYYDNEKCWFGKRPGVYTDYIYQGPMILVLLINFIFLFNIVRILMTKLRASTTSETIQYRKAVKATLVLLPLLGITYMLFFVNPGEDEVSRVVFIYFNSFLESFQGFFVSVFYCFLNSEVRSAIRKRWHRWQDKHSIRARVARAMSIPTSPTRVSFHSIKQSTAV

The target in the next assay is Glucagon receptor (Homo sapiens, UniProt P47871).
Sequence of Glucagon receptor (P47871 whole entry): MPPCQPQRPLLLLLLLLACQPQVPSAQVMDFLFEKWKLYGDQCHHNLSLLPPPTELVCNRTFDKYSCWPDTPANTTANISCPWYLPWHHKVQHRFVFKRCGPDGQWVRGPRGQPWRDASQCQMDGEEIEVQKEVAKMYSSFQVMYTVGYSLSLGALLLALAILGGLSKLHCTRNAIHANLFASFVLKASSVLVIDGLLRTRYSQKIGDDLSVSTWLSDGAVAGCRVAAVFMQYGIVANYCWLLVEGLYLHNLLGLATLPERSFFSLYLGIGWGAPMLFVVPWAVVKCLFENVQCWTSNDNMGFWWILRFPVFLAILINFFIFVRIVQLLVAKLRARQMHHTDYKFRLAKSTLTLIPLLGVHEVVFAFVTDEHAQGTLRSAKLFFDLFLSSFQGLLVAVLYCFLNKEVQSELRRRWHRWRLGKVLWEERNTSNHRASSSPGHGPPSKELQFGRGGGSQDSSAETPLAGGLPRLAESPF
Assay [4] concerns the target T3, Corticotropin-releasing factor receptor 2 (Homo sapiens, UniProt Q13324).
T3 sequence (Q13324 whole entry): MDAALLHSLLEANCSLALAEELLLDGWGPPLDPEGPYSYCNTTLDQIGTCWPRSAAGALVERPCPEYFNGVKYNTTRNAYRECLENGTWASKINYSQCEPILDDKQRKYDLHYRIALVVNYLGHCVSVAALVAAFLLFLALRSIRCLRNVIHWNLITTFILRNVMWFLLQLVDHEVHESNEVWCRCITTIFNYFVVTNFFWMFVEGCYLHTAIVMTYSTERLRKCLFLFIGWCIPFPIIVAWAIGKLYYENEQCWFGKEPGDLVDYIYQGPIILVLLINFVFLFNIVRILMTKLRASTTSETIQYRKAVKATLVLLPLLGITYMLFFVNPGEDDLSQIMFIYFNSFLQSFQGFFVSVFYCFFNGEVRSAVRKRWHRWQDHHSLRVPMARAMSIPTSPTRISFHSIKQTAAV

Assay [5] has as its target Beta-3 adrenergic receptor (Homo sapiens, UniProt P13945).
Assay [6] deals with T4, Neuropeptide Y receptor type 2 (Homo sapiens, UniProt P49146).
T4 sequence (P49146 whole entry): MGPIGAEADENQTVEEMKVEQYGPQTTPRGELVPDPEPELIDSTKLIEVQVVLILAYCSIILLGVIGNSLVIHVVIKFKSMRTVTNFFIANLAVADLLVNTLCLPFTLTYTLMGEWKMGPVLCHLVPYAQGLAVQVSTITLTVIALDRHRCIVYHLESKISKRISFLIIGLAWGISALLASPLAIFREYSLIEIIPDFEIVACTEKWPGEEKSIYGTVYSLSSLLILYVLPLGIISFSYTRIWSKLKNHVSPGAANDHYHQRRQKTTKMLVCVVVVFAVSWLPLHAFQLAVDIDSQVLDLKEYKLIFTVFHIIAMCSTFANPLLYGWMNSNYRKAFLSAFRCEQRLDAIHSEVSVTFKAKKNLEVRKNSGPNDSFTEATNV

The target of another assay is Histamine H1 receptor (Homo sapiens, UniProt P35367). The format is functional, cell-based.
Sequence of Histamine H1 receptor (P35367 whole entry): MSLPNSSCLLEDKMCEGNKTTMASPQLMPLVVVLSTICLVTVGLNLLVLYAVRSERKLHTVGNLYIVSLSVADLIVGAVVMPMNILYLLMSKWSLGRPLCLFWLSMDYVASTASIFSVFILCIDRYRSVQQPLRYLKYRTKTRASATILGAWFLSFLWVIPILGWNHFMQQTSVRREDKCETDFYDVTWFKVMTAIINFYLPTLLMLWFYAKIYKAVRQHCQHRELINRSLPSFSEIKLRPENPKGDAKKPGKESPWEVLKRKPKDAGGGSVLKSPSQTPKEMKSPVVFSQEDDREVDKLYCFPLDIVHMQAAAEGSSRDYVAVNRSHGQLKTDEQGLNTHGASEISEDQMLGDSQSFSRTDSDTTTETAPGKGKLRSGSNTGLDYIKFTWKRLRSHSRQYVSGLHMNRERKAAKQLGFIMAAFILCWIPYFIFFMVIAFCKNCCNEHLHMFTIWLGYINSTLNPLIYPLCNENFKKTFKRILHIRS
A further assay has as its target Estrogen receptor beta (Homo sapiens, UniProt Q92731).
Assay [7] concerns the target 5-hydroxytryptamine receptor 2B (Homo sapiens, UniProt P41595).
Another assay addresses T5, D(4) dopamine receptor (Homo sapiens, UniProt P21917).
T5 sequence (P21917 whole entry): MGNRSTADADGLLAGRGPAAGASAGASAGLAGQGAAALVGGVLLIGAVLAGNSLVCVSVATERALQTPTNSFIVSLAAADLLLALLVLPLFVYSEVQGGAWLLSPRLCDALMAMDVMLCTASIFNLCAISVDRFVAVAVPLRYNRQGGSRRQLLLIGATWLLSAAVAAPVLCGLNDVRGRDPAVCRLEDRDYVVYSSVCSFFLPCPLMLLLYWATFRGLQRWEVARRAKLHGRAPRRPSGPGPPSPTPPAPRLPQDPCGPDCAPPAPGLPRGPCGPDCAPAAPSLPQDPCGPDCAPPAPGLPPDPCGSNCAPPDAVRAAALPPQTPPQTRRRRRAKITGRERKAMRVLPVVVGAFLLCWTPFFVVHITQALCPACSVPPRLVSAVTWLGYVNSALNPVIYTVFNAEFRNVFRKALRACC
Further: assay procedure not described here.

Sequence of Beta-3 adrenergic receptor (P13945 whole entry): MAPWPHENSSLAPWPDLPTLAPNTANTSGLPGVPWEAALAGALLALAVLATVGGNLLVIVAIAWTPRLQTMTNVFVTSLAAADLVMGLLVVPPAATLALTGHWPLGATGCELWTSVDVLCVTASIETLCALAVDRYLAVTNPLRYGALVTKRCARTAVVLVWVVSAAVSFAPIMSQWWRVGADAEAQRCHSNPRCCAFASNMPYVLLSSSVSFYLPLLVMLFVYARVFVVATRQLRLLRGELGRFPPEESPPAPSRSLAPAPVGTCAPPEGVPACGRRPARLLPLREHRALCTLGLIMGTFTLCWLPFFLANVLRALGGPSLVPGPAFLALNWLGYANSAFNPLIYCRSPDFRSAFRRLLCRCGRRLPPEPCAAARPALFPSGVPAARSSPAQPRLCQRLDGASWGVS
Sequence of 5-hydroxytryptamine receptor 2B (P41595 whole entry): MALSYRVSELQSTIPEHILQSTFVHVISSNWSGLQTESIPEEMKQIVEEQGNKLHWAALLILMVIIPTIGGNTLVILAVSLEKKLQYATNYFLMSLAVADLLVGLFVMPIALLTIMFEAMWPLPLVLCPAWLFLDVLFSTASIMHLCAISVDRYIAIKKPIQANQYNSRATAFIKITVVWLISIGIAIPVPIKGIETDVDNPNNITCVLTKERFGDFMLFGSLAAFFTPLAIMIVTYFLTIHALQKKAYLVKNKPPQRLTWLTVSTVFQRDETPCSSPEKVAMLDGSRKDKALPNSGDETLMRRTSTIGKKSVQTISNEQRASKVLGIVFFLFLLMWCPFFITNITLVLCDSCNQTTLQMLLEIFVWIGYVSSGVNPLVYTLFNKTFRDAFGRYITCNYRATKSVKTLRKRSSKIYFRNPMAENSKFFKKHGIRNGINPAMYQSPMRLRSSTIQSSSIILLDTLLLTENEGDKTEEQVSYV
Sequence of Estrogen receptor beta (Q92731 whole entry): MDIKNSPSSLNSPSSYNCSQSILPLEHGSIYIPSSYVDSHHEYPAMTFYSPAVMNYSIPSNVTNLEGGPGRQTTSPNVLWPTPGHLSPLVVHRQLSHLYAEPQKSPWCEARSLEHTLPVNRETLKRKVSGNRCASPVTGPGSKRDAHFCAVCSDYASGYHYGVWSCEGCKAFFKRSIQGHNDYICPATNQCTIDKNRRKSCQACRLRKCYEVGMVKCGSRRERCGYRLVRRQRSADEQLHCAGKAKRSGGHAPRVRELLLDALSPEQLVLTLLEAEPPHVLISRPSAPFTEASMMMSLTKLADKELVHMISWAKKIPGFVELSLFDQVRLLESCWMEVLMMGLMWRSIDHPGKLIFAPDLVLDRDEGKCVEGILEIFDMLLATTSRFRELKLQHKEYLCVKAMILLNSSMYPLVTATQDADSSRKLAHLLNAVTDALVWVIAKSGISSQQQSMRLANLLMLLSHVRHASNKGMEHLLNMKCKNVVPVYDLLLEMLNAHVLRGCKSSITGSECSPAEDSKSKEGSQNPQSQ

Regarding `C[N+]12CCC(CC1)C(OC(=O)C(O)(c1ccccc1)c1ccccc1)C2` (centres undefined), in assay [1], the activity was half-maximal at 0.0032 µM (AC50).
For the compound `CO/N=C(\C(=O)N[C@@H]1C(=O)N2C(C(=O)O)=C(CSc3nc(=O)c(=O)[nH]n3C)CS[C@H]12)c1csc(N)n1` [CEFTRIAXONE], the concentration at half-maximal activity (AC50) (commonly the concentration at which the activity in the assay is half-maximal) in [2] is more than 30 µM.
In the case of `COc1cc(N)c(Cl)cc1C(=O)NC1CCN(CCCOc2ccc(F)cc2)CC1OC` (centres undefined) [CISAPRIDE], the AC50 in assay [3] is more than 30 µM; at Glucagon receptor it was more than 30 µM; in assay [1], more than 10 µM; in [4] it was more than 30 µM; in assay [5], more than 30 µM; in [6], more than 30 µM.
`CC(CN(C)C)C(C)(O)Cc1ccc(Cl)cc1` (centres undefined) [CLOBUTINOL]: on Histamine H1 receptor, the half-maximal activity concentration (AC50) was more than 30 µM.
Turning to `CCOC(=O)C(C)(C)Oc1ccc(Cl)cc1` [CLOFIBRATE], the AC50 is more than 30 µM in assay [3]; more than 30 µM at Glucagon receptor; more than 10 µM in assay [1]; more than 30 µM in assay [4]; more than 30 µM in assay [5]; more than 30 µM at Estrogen receptor beta. In addition, the AC50 in [6] is more than 30 µM.
Consider `CCCCOc1ccc(C(=O)CCN2CCCCC2)cc1` [DYCLONINE], for which the AC50 in assay [7] is more than 10 µM; in assay [3] it was more than 30 µM; on Glucagon receptor, more than 30 µM; in assay [1], 2.81 µM; on Histamine H1 receptor, more than 30 µM; at D(4) dopamine receptor it was 4.11 µM. Moreover, the half-maximal activity concentration (AC50) (in assay [4]; in assay [5]; on Estrogen receptor beta; in assay [6]) was more than 30 µM in each case.
With `CC(C)NC[C@H](O)COc1ccc(CC(N)=O)cc1` [ESATENOLOL], the AC50 in assay [3] was more than 30 µM; at Glucagon receptor, more than 30 µM; at D(4) dopamine receptor, more than 10 µM; in assay [4] it was more than 30 µM; in [6], more than 30 µM.
Consider `NNC(=O)c1ccncc1` [ISONIAZID], for which the AC50 is more than 10 µM in [7]; more than 30 µM in assay [3]; more than 30 µM at Glucagon receptor; more than 10 µM at D(4) dopamine receptor; more than 30 µM in assay [4]; more than 30 µM in assay [5]. Besides, the concentration at half-maximal activity (AC50) (at Estrogen receptor beta; in assay [6]) was more than 30 µM throughout.
Turning to `O=C1Nc2ccc(Cl)cc2C(c2ccccc2Cl)=NC1O` (centres undefined) [LORAZEPAM], the AC50 in assay [7] is more than 10 µM; in [3] it was more than 30 µM; on Glucagon receptor it was more than 30 µM; in [1] it was more than 10 µM; at D(4) dopamine receptor, more than 10 µM; in [4], more than 30 µM. Moreover, the AC50 (in assay [5]; at Estrogen receptor beta; in assay [6]) was more than 30 µM throughout.
With `Cc1ccnc2c1NC(=O)c1cccnc1N2C1CC1` [NEVIRAPINE], the concentration at half-maximal activity (AC50) in assay [7] is more than 10 µM; in [3], more than 30 µM; on Glucagon receptor it was more than 30 µM; in assay [1] it was more than 10 µM; at D(4) dopamine receptor, more than 10 µM; in [4] it was more than 30 µM. The AC50 (in [5]; at Estrogen receptor beta; in [6]) was more than 30 µM each time.
`O=C(NCCO[N+](=O)[O-])c1cccnc1` [NICORANDIL]: the AC50 (on Histamine H1 receptor; in assay [2]) was more than 30 µM throughout.
As to `CO[C@H]1C[C@H](O[C@H]2CC[C@@]3(C)[C@H](CC[C@@H]4[C@@H]3CC[C@]3(C)[C@@H](C5=CC(=O)OC5)[C@@H](OC(C)=O)C[C@]43O)C2)O[C@@H](C)[C@@H]1O` [OLEANDRIN], in [2], the AC50 was more than 30 µM.
As to `O=c1[nH]c2ccccc2n1CCCN1CCN(C(c2ccccc2)c2ccccc2)CC1` [OXATOMIDE], the values for the AC50 (on Histamine H1 receptor; in assay [2]) were 0.69 µM and more than 30 µM, respectively.
Consider `COc1cc2[nH]c(C)c(CCN3CCN(c4ccccc4)CC3)c2cc1OC` [OXYPERTINE], for which the half-maximal activity concentration (AC50) was 0.645 µM at Histamine H1 receptor and more than 30 µM in assay [2].
With `Fc1ccc([C@@H]2CCNC[C@H]2COc2ccc3c(c2)OCO3)cc1` [PAROXETINE], the AC50 in assay [7] is 11.9 µM; in assay [3] it was more than 30 µM; at Glucagon receptor it was more than 30 µM; on D(4) dopamine receptor, more than 10 µM; in assay [4], more than 30 µM; in assay [5] it was more than 30 µM. This compound came in with a concentration at half-maximal activity (AC50) in assay [6] of more than 30 µM.
In [2], `c1ccc(C2(N3CCCCC3)CCCCC2)cc1` [PHENCYCLIDINE] yielded an AC50 of more than 30 µM.
Regarding `COc1cc(C(=O)OCc2cccc(COC(=O)c3cc(OC)c(OC)c(OC)c3)n2)cc(OC)c1OC` [PIROZADIL], the concentration at half-maximal activity (AC50) (at Histamine H1 receptor; in assay [2]) was more than 30 µM throughout.
Regarding `CCC(=O)O[C@](Cc1ccccc1)(c1ccccc1)[C@H](C)CN(C)C` [PROPOXYPHENE], the concentration at half-maximal activity (AC50) in assay [7] was more than 10 µM; in assay [3], more than 30 µM; at Glucagon receptor it was more than 30 µM; in assay [1], more than 10 µM; at D(4) dopamine receptor, more than 10 µM; in assay [4], more than 30 µM. Also, the half-maximal activity concentration (AC50) (in assay [5]; at Estrogen receptor beta; in [6]) was more than 30 µM throughout.
`CCc1nc(N)nc(N)c1-c1ccc(Cl)cc1` [PYRIMETHAMINE] came in with an AC50 in assay [7] of more than 10 µM.
For `O=c1c(O)c(-c2ccc(O)c(O)c2)oc2cc(O)cc(O)c12` [QUERCETIN], the AC50 in assay [7] is 19.4 µM; in assay [3], more than 30 µM; at Glucagon receptor, more than 30 µM; in assay [1], more than 10 µM; in assay [4] it was more than 30 µM; on Estrogen receptor beta it was more than 30 µM. Moreover, the AC50 in [6] is more than 30 µM.
Consider `CCN1CCCC1CNC(=O)c1cc(S(=O)(=O)CC)ccc1OC` (centres undefined) [SULTOPRIDE], for which the AC50 (at Histamine H1 receptor; in [2]) was more than 30 µM in each case.
As to `CCOC(=O)[C@@H](N)Cc1ccc(-c2cc(O[C@H](c3ccc(Cl)cc3-n3ccc(C)n3)C(F)(F)F)nc(N)n2)cc1` [TELOTRISTAT ETHYL], the concentration at half-maximal activity (AC50) in [2] was more than 30 µM.
